From patent publication US12129504B2, “Caproate-producing bacterium with multiple substrate utilization capabilities and its applications” (Jiangnan University, priority 2021, dated 2024)

Legend:
[1] = system: Oscillospiraceae sp. LBM10036; experiment: Tolerance of the strain to toxicity of caproic acid: growth (OD600) in liquid mediums with different initial concentrations of caproic acid; assay type: cell-based
Excerpt: A brewing environment of Strong aroma-type Baijiu is characterized by a low pH, and the lower the pH, the higher the content of free caproic acid in a system. Free caproic acid can cause toxicity to bacterial cells, therefore, the stronger the tolerance of bacterial cells to the toxicity of caproic acid, the more favorable it is for the survival of the bacterial cells in a system. The growth of the Oscillospiraceae sp. LBM10036 was tracked and measured by designing liquid mediums with different initial concentrations of caproic acid.
The medium contains (calculated in g/L): glucose 20.0, yeast powder 10.0, peptone 10.0, dipotassium hydrogen phosphate 1.0, potassium dihydrogen phosphate 0.5, ammonium sulfate 2.0, magnesium sulfate 0.1, and a cosubstrate 5.0, as well as a trace element nutrient solution 0.15-1.0 (mL/L). The cosubstrate is one or both of acetate and butyrate. The trace element nutrient solution contains (calculated in g/L): calcium chloride 10, cobalt chloride 10, zinc sulfate 10, manganese sulfate 10, and ferrous sulfate heptahydrate 15. The pH of the medium is 5.5, and the medium was sterilized at 115° C. for 30 min.
The dissolved medium was divided into 5 blue cap bottles (100 mL), each blue cap bottle containing 100 mL of medium. Before sterilization, the initial concentrations of caproic acid in the mediums were adjusted to 0 g/L, 1 g/L, 2 g/L, 3 g/L, and 4 g/L using a caproic acid standard. At this point, the initial concentrations of free caproic acid in the mediums were 0 g/L, 0.19 g/L, 0.37 g/L, 0.56 g/L, and 0.75 g/L, respectively. The mediums were sterilized at 115° C. for 30 min. After sterilization, the medium of each initial concentration gradient of caproic acid was divided into 3 parts, each part containing 30 mL in a 50 mL centrifuge tube. The residual mediums were taken out of an anaerobic incubator for re-determining the pH and initial concentrations of total caproic acid, and calculating whether the actual concentrations of free caproic acid meet the experimental design.
(1) An Oscillospiraceae sp. LBM10036 frozen glycerol tube was taken out from a −80° C. refrigerator, activated for cultivation for the first generation at 37° C. in the modified Clostridium growth medium prepared in (1) step 1 until the OD600 was 1.5-2.0 to obtain a first generation seed solution, and then the first generation seed solution was transferred to a fresh modified Clostridium growth medium at an inoculum concentration of 5% (v/v) and activated for the second generation cultivation at 37° C. for 12-18 h until the OD600 was 1.5-2.0 to obtain a second generation seed solution.
(2) 100 mL of the modified Clostridium growth medium described in step (1) was inoculated with the second generation seed solution obtained in step (1) at an inoculum concentration of 5% (v/v) and cultivated until the OD value was 1.5-2.0, to obtain a culture solution.
(3) The mediums with different initial concentration gradients of caproic acid prepared in (2) of step 1 were inoculated with the prepared culture solution at an inoculum concentration of 5% (v/v). The medium of each initial concentration gradient of caproic acid had 3 replicates, and sampled from 0 to 72 h at an interval of 12 h. The maximum specific growth rates under different initial concentration gradients of caproic acid were plotted (as shown in FIG. 4).

[2] = cited from earlier work

## CCCCCC(=O)O [caproic acid]
[1]; caproic acid 4 g/L (free caproic acid 0.75 g/L)
  growth of Oscillospiraceae sp.: significantly inhibited
[1]; free caproic acid calculated from pH 5.5 and pKa 4.86
  concentration of free caproic acid at the maximum tolerable initial concentration: 0.56 g/L
[1]; initial caproic acid 1 g/L, 0 h, medium pH 5.5
  OD600: 0.26 ± 0.00
[1]; initial caproic acid 1 g/L, 12 h, medium pH 5.5
  OD600: 0.53 ± 0.02
[1]; initial caproic acid 1 g/L, 24 h, medium pH 5.5
  OD600: 1.96 ± 0.17
[1]; initial caproic acid 1 g/L, 48 h, medium pH 5.5
  OD600: 2.39 ± 0.20
[1]; initial caproic acid 1 g/L, 72 h, medium pH 5.5
  OD600: 2.25 ± 0.32
[1]; initial caproic acid 2 g/L, 0 h, medium pH 5.5
  OD600: 0.27 ± 0.01
[1]; initial caproic acid 2 g/L, 12 h, medium pH 5.5
  OD600: 0.30 ± 0.02
[1]; initial caproic acid 2 g/L, 24 h, medium pH 5.5
  OD600: 1.06 ± 0.37
[1]; initial caproic acid 2 g/L, 48 h, medium pH 5.5
  OD600: 2.00 ± 0.10
[1]; initial caproic acid 2 g/L, 72 h, medium pH 5.5
  OD600: 1.72 ± 0.17
[1]; initial caproic acid 3 g/L, 0 h, medium pH 5.5
  OD600: 0.26 ± 0.01
[1]; initial caproic acid 3 g/L, 12 h, medium pH 5.5
  OD600: 0.69 ± 0.06
[1]; initial caproic acid 3 g/L, 24 h, medium pH 5.5
  OD600: 0.88 ± 0.07
[1]; initial caproic acid 3 g/L, 48 h, medium pH 5.5
  OD600: 1.46 ± 0.07
[1]; initial caproic acid 3 g/L, 72 h, medium pH 5.5
  OD600: 1.44 ± 0.05
[1]; initial caproic acid 4 g/L, 0 h, medium pH 5.5
  OD600: 0.23 ± 0.01
[1]; initial caproic acid 4 g/L, 12 h, medium pH 5.5
  OD600: 0.22 ± 0.01
[1]; initial caproic acid 4 g/L, 24 h, medium pH 5.5
  OD600: 0.20 ± 0.01
[1]; initial caproic acid 4 g/L, 48 h, medium pH 5.5
  OD600: 0.21 ± 0.04
[1]; initial caproic acid 4 g/L, 72 h, medium pH 5.5
  OD600: 0.20 ± 0.02
[1]; total caproic acid, medium pH 5.5
  maximum tolerable initial concentration of caproic acid: 3 g/L
[2]
  pKa: 4.86
